In article PMC10993450, “New benzimidazole derivative compounds with in vitro fasciolicidal properties” (Parasites & Vectors, 2024):
“And” between values parts separate entries of the source, which are not always exact repeats. Equal values may be shown once. “Also recorded” adds a separate entry of the source. Read-outs that look alike come from different tables or passages of the source.

Legend:
[1] = system: Fasciola hepatica eggs (ABZ-susceptible isolate); assay: Egg hatch test (EHT), ABZ-susceptible isolates; type: cell-based; details: mean ± SEM; for % Ovicidal activity: ABZ-susceptible isolate
Description: Eggs were recovered from gallbladders of cattle naturally infected with F. hepatica at the municipal slaughterhouse of León (Spain). For this, the bile of the gallbladders was filtered through sieves of different diameter size pores (500, 150, and 20 µm) using pressurized tap water. Eggs retained on the 20 µm pore size sieve were collected and stored at 4 °C in darkness until required within a maximum period of 2 months.
The susceptibility of the isolates to ABZ was confirmed by the egg hatch test (EHT) using an ABZ discriminant dose (DD) of 0.5 µM [23]. The technique is described in more detail below.
The in vitro anthelmintic activity of a total of 70 BZDs was initially tested on F. hepatica eggs recovered from gallbladders of cattle naturally infected with ABZ-susceptible isolates. The first screening was performed using a fixed concentration of 50 µM. […] Therefore, only BZDs with ovicidal activities over 80% progressed to the next assays at 10 µM. […] At this last concentration, the ovicidal effect of ABZ, ABZSO, and OXF was also evaluated.
(§1) The in vitro EHT described in the current study was based on previous studies. Briefly, 100–120 eggs were incubated in 990 µL of water and 10 μL of each working solution at 25 °C in the dark for a period of 12 h. After incubation, eggs were gently washed with tap water three times to facilitate compound removal and kept in darkness at 25 °C for 14 days. After this period, eggs were exposed to light for 2 h to stimulate the hatching of eggs. Then, hatched and unhatched eggs were evaluated and counted using an optical microscope. The term “hatched eggs” includes both hatched and embryonated eggs. Negative control eggs were incubated with 10 μL of DMSO in 990 μL of water, reaching a maximum DMSO concentration of 1% (v/v), while ABZ at 0.5 µM was used as positive control. Each compound at a specific concentration was tested in triplicate in the same EHT and repeated at least two different days.
With the aim to characterize the susceptibility of isolates from naturally infected cattle, the drug used in the EHT was ABZ, tested at a discriminant dose of 0.5 μM. Drug susceptibility is assumed when the ovicidal activity is over 70%, resistance when is lower than 40%, and a suspicion of resistance when activity is between these values at 0.5 μM.
(§2) The efficacy of each compound and drug was calculated as its ovicidal activity following the formula below: Ovicidal activity%=100×%eggs hatched in negative control-%egg hatched after drug incubation/%egg hatched in control.

[2] = system: Fasciola hepatica eggs (ABZ-resistant isolate); assay: Egg hatch test (EHT), ABZ-resistant isolate; type: cell-based
Excerpt: F. hepatica eggs were recovered after washing the gallbladder of three naturally infected sheep belonging to a flock suspected to be resistant to ABZ. From these eggs, metacercariae were produced at the Centro de Investigaciones de Mabegondo (AGACAL, Xunta de Galicia, Spain) following a previous protocol. These metacercariae were used to infect eight sheep with a dose of 200 metacercariae. The infection was confirmed individually 3 months after the infection by coprological analysis using a sedimentation technique. At that point, sheep were randomly located in two groups of four animals: one treated with a therapeutic dose of ABZ (7.5 mg/kg) and the other one only with water, as control group. To assess the efficacy of ABZ in this isolate, all sheep were humanely euthanized by an intravenous administration of a lethal dose of sodium pentobarbital (Dolethal®, Vetoquinol, Spain) 2 weeks later for fluke recovery and counting. Afterwards, the in vivo efficacy of ABZ was calculated as the percentage of adult worm reduction compared with the untreated control. Additionally, the number of eggs per gram of feces (EPG) was estimated on the treatment day (mentioned as day 0) and 14 days later to determine drug efficacy by means of the fecal egg count reduction test (FECRT).
During the necropsy, gallbladders from sheep belonging to the untreated group were taken to collect the eggs and carry out the in vitro EHT, while flukes collected from livers were used to conduct the adult viability test (AVT).
Those BZDs with an activity higher than 80% at a concentration of 10 µM were also screened on eggs and adults from the ABZ resistant isolate.
as §1, §2

[3] = system: Fasciola hepatica adults (ABZ-resistant isolate); assay: Adult viability test (AVT), motility inhibition; type: cell-based; details: for inhibition at 10 µM: Fasciola hepatica
Description: The adult viability test was based on a previous study carried out by Kirchhofer et al. with minor modifications. In brief, adult F. hepatica flukes were recovered from bile ducts of infected sheep with the resistant isolate. Flukes were quickly washed with 0.9% (w/v) NaCl and placed in six-well plates (Costar, Spain) with RPMI 1640 culture medium (Sigma-Aldrich®, Spain) supplemented with antibiotics (50 μg/mL streptomycin and 50 IU/mL penicillin; Sigma-Aldrich®, Spain) and 80 μg/mL of a hemin solution at 37 °C.
To monitor the anthelmintic effect of BZDs and the commercial drug ABZ, two flukes per well were incubated up to 72 h at a final concentration of 10 µM. DMSO at 0.5% was used as negative control. The individual movement of each fluke was examined using an inverted microscope at 24, 48, and 72 h. The activity of the compounds was estimated as motility inhibition, using a scale of fluke viability ranging from 3 (normal movements) to 0 (death, no movement observed for 2 min). All tests were repeated at least twice at different days.
Additionally, the percentage of motility inhibition for each compound was calculated from […] to 48 and 72 h after treatment using the following formula: 100 × (mean of the motility score of BZD at 24 h − mean of the motility score of BZD at 48 or 72 h)/(mean of the motility score of BZD at 24 h).
For the AVT, statistical analysis was performed using GraphPad Prism version 8.0.2. The normality of the motility inhibition scores was assessed using the Shapiro–Wilk test. Then, differences among scores at the three time points (24, 48, and 72 h) were evaluated using the Friedman test. In cases where significant differences were observed, post hoc analysis was conducted using the Nemenyi test for multiple comparisons. Comparisons with a P value < 0.05 were considered statistically significant.

[4] = system: murine intestinal organoids; assay: Intestinal tolerability assay on murine intestinal organoids; type: cell-based, mouse
Description: The murine intestinal organoid cultures were prepared following Stemcell Technologies™ protocols (https://www.stemcell.com/intestinal-epithelial-organoid-culture-with-intesticult-organoid-growth-medium-mouse-lp.html#protocols). Small intestine sections from C57BL/6 mice were excised, washed with ice-cold PBS, minced, and 2 mm segments were washed extensively. The segments were treated with Gentle Cell Dissociation Reagent (Stemcell Technologies™, Canada), resuspended in ice-cold PBS with 0.1% BSA and filtered. This process was repeated four times, resulting in four fractions. Cells from each fraction were centrifuged, washed, and resuspended in ice-cold DMEM/F12 supplemented with glutamine and HEPES 15 mM. Each fraction was mixed with Geltrex GFR LDEV-free (Gibco, Thermo Fisher Scientific, USA) and IntestiCult™ Organoid Grow Medium Mouse (Stemcell Technologies™, Canada), added to a 24-well plate and incubated at 37 °C for 10 min for matrix polymerization. The organoids were cultured in IntestiCult™ Organoid Grow Medium Mouse, with medium changes every 2 days and splitting after 7 days.
For intestinal tolerability assays, selected hit compounds were tested in mouse intestinal organoids at 25 and 50 µM final concentrations. The protocol, based on a previous work, involved the addition of Gentle Cell Dissociation Reagent (Stemcell Technologies™, Canada) on matrix domes, the disruption of the matrix, and the incubation the suspension. After centrifugation, cells were resuspended in DMEM/F12 supplemented with glutamine and HEPES 15 mM and centrifugated again. The pellet was resuspended in a mix of Geltrex GFR LDEV-free and IntestiCult™ Organoid Grow Medium Mouse. The mix was plated in 384-well plates, and after 4 days, mature organoids were exposed to the compounds. The positive control was hydrogen peroxide (0.15% v/v), and the negative control was DMSO (0.2%). Viability after 72 h was assessed using the alamarBlue assay.

HepG2 cells = assay: Cytotoxicity assay, alamarBlue; type: cell-based, human
Description: The effect of the BZDs on cell viability was assessed on a human hepatocarcinoma HepG2 (ATCC® HB-8065™, USA) cell line. Only compounds screened at a concentration of 10 µM were evaluated. The detailed protocol is described in a previous study carried out by our research group. Briefly, 10,000 cells were seeded on 96-well plates and incubated with different concentrations of the compounds ranging from 1 to 100 µM at 37 °C and 5% CO2. After 72 h of exposure, viability of the cells was assessed using the alamarBlue (Fisher Scientific®, Spain) staining method according to the manufacturer’s recommendations.
The data are represented as mean ± standard error of media (SEM).

[5] = system: Teladorsagia circumcincta eggs; details: type II BZDs; read-out: IC50 against T. circumcincta eggs; cited from earlier work
Fasciola hepatica eggs = system: Fasciola hepatica eggs; design: method as in PMID 19560276; details: other studies; cited from earlier work

Compound	% Ovicidal activity ([1]; 10 µM)	% Ovicidal activity ([1]; 50 µM)	% Viability in organoids ([4]; 50 µM)	CC50 (HepG2 cells)	% Viability in organoids ([4]; 25 µM)	further results
CCC[S+]([O-])c1ccc2[nH]c(NC(=O)OC)nc2c1 (centres unmarked) [ABZSO, albendazole sulfoxide, reference compound]	–	–	–	–	–	killing at 5 µM ([1]; Fasciola hepatica, 5 µM, read-out: % Ovicidal activity susceptible isolate): > 98%; % Ovicidal activity resistant isolate ([2]; 5 µM, mean ± SEM): 26% and 26.12 ± 11.87%; Ovicidal activity on the resistant isolate ([2]; 10 µM as printed): 26%; Motility inhibition of adults after 72 h of incubation (in words; significance vs 24 h) ([3]; 10 µM, ABZ-resistant isolate): nor those with ABZSO or BZD46, exhibited any significant motility inhibition; also recorded: no evidence of inhibition; also recorded: did not produce any motility alteration; inhibition at 10 µM ([3]; read-out: % Adult motility inhibition 48 h): 25%; inhibition at 10 µM ([3]; read-out: % Adult motility inhibition 72 h): 25%
COc1ccc(-c2nc3cc(C)ccc3[nH]2)cc1 [BZD04]	64.27 ± 10.16%	99.57 ± 0.43%	10.50%	–	–	% Ovicidal activity ([1]; 50 µM, listed as BZD-04): higher than 80%
COc1ccc(-c2nc3cc(Cl)ccc3[nH]2)cc1 [BZD08]	55.33 ± 05.81%	98.08 ± 1.06%	47.30%	> 50 µM	69.30%	% Ovicidal activity ([1]; 10 µM, listed as BZD-08): around 50%; % Ovicidal activity ([1]; 50 µM, listed as BZD-08): higher than 80%
Cc1ccc2[nH]c(NCc3ccccc3)nc2c1 [BZD27]	44.65 ± 07.46%	95.92 ± 1.99%	–	–	–	% Ovicidal activity ([1]; 10 µM, listed as BZD-27): around 50%; % Ovicidal activity ([1]; 50 µM, listed as BZD-27): higher than 80%; % Viability in organoids ([4]; 25 µM, 72 h): 54.10%; % Viability in organoids ([4]; 50 µM, 72 h): 49.70%
Cc1ccc2[nH]c(NCc3ccco3)nc2c1 [BZD30]	52.41 ± 01.02%	100.00 ± 0.00%	–	–	–	% Ovicidal activity ([1]; 10 µM, listed as BZD-30): around 50%; % Ovicidal activity ([1]; 50 µM, listed as BZD-30): higher than 80%; CC50 (HepG2 cells; 72 h exposure, alamarBlue, read-out: CC50 Hep-G2): > 50 µM; % Viability in organoids ([4]; 25 µM, 72 h): 62.50%; % Viability in organoids ([4]; 50 µM, 72 h): 54.00%
Clc1ccc2[nH]c(NCc3ccccc3)nc2c1 [BZD32]	09.11 ± 03.40%	92.62 ± 1.96%	52.10%	–	48.10%	% Ovicidal activity ([1]; 50 µM, listed as BZD-32): higher than 80%
COc1ccc2[nH]c(NCc3ccc(N4CCCC4)cc3)nc2c1 [BZD38]	03.23 ± 00.84%	higher than 80%	38.00%	> 100 µM	81.10%	–
Cc1ccc2[nH]c(NC(=O)c3ccccn3)nc2c1 [BZD55]	07.11 ± 03.01%	89.71 ± 3.87%	–	> 100 µM	98.60%	% Ovicidal activity ([1]; 50 µM, listed as BZD-55): higher than 80%; IC50 [5]: ~1 µM
COc1ccc2[nH]c(NC(=O)c3ccccn3)nc2c1 [BZD61]	–	93.17 ± 3.31%	–	–	–	% Ovicidal activity ([1]; 50 µM, listed as BZD-61): higher than 80%; IC50 [5]: < 1 µM
Nc1cc(C(Cl)=C(Cl)Cl)c(S(N)(=O)=O)cc1S(N)(=O)=O [CLR, clorsulon]	–	–	–	–	–	Effect on in vitro egg hatching (Fasciola hepatica eggs): did not affect in vitro egg hatching
